Activity calls are given as the source filed them. Cut-off read from the data, not from the text of the source, for most assays here: active = IC50 of 5 µM or less and inactive = more.
What was measured:
Prothrombin = Prothrombin (Homo sapiens, UniProt P00734); assay: Thrombin 1536 HTS Dose Response Confirmation. [Related pubchem assays: 1046 (Thrombin 1536 HTS; hits were confirmed in this assay)]; type: functional
Aminopeptidase N = target: T1, Aminopeptidase N (Plasmodium falciparum FcB1/Columbia, UniProt O96935); assay: malaria alanyl aminopeptidase activity blockers – biochemical, fluorogenic H-Leu-NHMec substrate, 1536-well (AID 1445); set-up: species or system Plasmodium falciparum 3D7, 3D7
T1 sequence (O96935 whole entry): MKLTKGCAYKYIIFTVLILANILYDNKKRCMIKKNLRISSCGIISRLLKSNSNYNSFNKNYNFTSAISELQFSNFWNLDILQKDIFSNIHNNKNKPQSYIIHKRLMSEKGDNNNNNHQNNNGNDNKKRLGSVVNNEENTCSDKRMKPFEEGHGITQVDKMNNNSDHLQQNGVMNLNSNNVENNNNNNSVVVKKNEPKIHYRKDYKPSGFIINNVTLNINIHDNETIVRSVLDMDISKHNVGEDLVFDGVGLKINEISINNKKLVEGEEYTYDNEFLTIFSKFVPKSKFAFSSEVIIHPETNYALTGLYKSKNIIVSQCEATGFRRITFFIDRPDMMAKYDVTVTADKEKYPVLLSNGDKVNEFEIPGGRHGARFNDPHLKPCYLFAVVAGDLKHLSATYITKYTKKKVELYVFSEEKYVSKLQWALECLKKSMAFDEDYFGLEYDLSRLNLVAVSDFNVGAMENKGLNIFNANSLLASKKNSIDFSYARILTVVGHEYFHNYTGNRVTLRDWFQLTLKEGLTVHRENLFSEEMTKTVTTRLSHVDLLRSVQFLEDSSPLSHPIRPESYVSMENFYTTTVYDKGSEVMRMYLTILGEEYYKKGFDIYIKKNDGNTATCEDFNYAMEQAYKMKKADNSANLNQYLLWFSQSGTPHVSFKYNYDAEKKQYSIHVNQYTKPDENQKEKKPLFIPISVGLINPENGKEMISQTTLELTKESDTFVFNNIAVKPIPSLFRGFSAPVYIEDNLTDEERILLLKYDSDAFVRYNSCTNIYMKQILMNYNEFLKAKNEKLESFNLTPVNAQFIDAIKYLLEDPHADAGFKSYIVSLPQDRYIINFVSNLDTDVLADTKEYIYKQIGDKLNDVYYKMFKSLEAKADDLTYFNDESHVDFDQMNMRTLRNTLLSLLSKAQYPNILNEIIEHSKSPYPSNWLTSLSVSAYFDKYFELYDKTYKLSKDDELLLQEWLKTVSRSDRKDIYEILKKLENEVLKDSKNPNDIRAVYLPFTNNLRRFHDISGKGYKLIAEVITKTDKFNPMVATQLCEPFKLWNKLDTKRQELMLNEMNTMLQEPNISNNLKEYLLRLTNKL

[1] = Reduced DLD-1 viability, concentration-response, CellTiter-Glo luminescence (AID 1117352); type: functional
[2] = RKO cell viability reduction, dose response, CellTiter-Glo luminescence (AID 1117322); type: functional
[3] = cytotoxicity toward HT-29 cells – cell-based, CellTiter-Glo luminescence, IC50, dose response (AID 1117330); type: functional
[4] = SNU-C1 cell viability reduction, dose response, CellTiter-Glo luminescence (AID 1117323); type: functional, cell-based
[5] = cytotoxicity toward HCT116 cells – cell-based, CellTiter-Glo luminescence, IC50, dose response (AID 1117332); type: functional; details: HCT-116
[6] = CellTiter-Glo luminescence survival assay, SW480 colon tumor line, concentration-response curve, half-maximal inhibitory concentration (AID 1117338); type: functional
[7] = HCT116 cell viability decrease, GSK3B pretreatment – CellTiter-Glo, IC50, dose response (AID 1117339); type: functional; details: HCT-116
[8] = cytotoxicity toward Colo320 cells – cell-based, CellTiter-Glo luminescence, IC50, dose response (AID 1117334); type: functional; details: COLO 320
Estrogen receptor = target: T2, Estrogen receptor (Homo sapiens, UniProt P03372);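 note: potency for inhibiting coactivator peptide recruitment to the receptor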
T2 sequence (P03372 whole entry): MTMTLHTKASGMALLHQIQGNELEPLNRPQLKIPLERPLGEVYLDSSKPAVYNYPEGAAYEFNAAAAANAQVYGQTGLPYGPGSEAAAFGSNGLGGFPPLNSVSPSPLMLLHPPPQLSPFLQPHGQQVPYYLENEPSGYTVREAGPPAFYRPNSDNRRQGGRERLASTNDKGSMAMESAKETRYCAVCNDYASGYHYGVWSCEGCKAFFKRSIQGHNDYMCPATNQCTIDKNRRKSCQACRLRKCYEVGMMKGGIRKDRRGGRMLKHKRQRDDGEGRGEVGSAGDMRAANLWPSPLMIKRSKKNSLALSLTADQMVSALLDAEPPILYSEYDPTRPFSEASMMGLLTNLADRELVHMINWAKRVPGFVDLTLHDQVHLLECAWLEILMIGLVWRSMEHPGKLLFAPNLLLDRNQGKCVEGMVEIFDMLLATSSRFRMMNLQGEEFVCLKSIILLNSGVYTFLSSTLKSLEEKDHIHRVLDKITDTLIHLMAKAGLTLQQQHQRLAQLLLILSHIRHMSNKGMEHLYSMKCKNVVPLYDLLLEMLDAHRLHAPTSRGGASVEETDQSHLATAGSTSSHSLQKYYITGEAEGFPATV

[9] = target: T3, DNA repair protein RAD52 homolog (Homo sapiens, UniProt P43351); type: functional, biochemical
T3 sequence (P43351 whole entry): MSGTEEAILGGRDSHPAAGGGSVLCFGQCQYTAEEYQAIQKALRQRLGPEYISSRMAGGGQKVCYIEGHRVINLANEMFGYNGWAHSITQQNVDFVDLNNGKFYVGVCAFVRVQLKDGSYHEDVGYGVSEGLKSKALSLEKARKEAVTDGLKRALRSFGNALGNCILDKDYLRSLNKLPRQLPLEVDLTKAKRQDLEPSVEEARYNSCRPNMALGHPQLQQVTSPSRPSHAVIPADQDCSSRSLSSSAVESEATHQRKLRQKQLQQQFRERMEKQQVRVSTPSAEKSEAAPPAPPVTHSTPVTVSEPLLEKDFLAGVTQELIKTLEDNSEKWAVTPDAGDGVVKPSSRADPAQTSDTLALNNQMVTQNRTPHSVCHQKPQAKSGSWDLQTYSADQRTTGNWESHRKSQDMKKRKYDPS

[10] = target: T4, Ubiquitin-conjugating enzyme E2 N (Homo sapiens, UniProt P61088); type: functional;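 note: Dose-response confirmation in a TR-FRET assay detecting UBC13-driven polyubiquitin chain formation, inhibition measured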
T4 sequence (P61088 whole entry): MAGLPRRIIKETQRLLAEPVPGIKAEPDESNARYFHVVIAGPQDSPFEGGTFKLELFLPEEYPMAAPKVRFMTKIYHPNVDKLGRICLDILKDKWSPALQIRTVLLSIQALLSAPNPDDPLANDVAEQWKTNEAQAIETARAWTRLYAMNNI

SMILES	IC50 [1]	IC50 [2]	IC50 [3]	IC50 [4]	IC50 [5]	IC50 [6]	IC50 [7]	IC50 [8]	further results
Cc1ccc(-c2nc(N)n(C(=O)Cc3ccccc3)n2)cc1	–	–	–	–	–	–	–	–	IC50 (Prothrombin): 1.82 µM (active)
O=c1[nH]c(SCc2ccccc2Cl)nc2n[nH]cc12	–	–	–	–	–	–	–	–	IC50 (Aminopeptidase N): 9.3 µM (active)
Cc1nc2ccccc2c(=O)n1NC(=O)c1cc(Br)ccc1Cl	–	–	–	–	–	–	–	–	IC50 (Prothrombin): > 50 µM (not active)
CC(=O)NC(=O)c1ccccc1O [SALACETAMIDE]	> 20 µM (inactive)	> 20 µM (inactive)	> 20 µM (inactive)	> 20 µM (inactive)	> 20 µM (inactive)	> 20 µM (inactive)	> 20 µM (inactive)	> 20 µM (inactive)	–
CN(C)[C@@H](CCOc1cccc2ccccc12)c1ccccc1 [DAPOXETINE]	> 20 µM (inactive)	8.11 µM (inactive)	> 20 µM (inactive)	12.8 µM (inactive)	> 20 µM (inactive)	> 20 µM (inactive)	9.86 µM (inactive)	> 20 µM (inactive)	–
C=CCn1c(SCC(=O)NC2CCCCC2)nnc1C(C)NC(=O)c1cccs1 (stereo not given)	–	–	–	–	–	–	–	–	IC50 (Estrogen receptor): > 50 µM (not active)
CN1CCN(C2Cc3ccccc3Sc3ccc(Cl)cc32)CC1 (stereo not given)	> 20 µM (inactive)	> 20 µM (inactive)	8 µM (inactive)	7.87 µM (inactive)	9.17 µM (inactive)	6.31 µM (inactive)	8.4 µM (inactive)	> 6.67 µM (inactive)	AC50 [9]: 22.5 µM (active); IC50 [10]: > 20 µM (inactive)

From ChEMBL document CHEMBL1201862, “PubChem BioAssay data set” (2004)
